# Tests used:
# [1] = tested on: PBMCs (Peripheral blood mononuclear cells); experiment: MTT cytotoxicity assay; details: SEQ ID NO. 2 80 μg/ml, doxorubicin 75 μM; 48h
# Procedure: (§1) All the cancer cell lines were procured from National Centre for Cell Science, Pune (India). Cell lines were maintained under conditions as mentioned in Table 23. The cell lines were sub-cultured by trypsinization followed by splitting the cell suspension into fresh flasks and supplementing with fresh culture medium.
# (§2) All the cell lines were grown in specified media at 37° C. with 95% Humidity and 5% CO2.
# (§3) The cells were trypsinized, counted by Trypan blue method in Neuebauer's Chamber and plated in wells of flat bottom 96-well plate at the density corresponding to 10×10^3 cells/well/200 μL medium.
# (§4) Following overnight incubation, the media in the plate was replenished with 180 μL/well and then the cells were treated with 20 μL of each test item at concentrations ranging from 2.5 μg/mL-80 μg/mL in triplicates, so that the total volume in each well is 200 μL.
# (§5) The untreated cells served as negative control. The cells were incubated with the test items or positive control for a time period of 48h. Following incubation, the cell cytotoxicity was estimated using MTT assay. Absorbance was measured at 540 nm. The percentage cytotoxicity corresponding to each treatment was calculated using the formula:
# (§6) % Cytotoxicity=(1−X/R)*100
# (§7) Where X=absorbance of wells corresponding to treated cells R=absorbance of untreated cells (cells maintained in growth medium only)
# (§8) IC50 value was calculated using Graph-Pad Prism version 4.01 software.
# [2] = tested on: MIA PaCa-2 (Human pancreatic carcinoma); experiment: MTT cytotoxicity assay; details: SEQ ID NO. 2 80 μg/ml, doxorubicin 75 μM; 48h
# Procedure: as §1, §2, §3, §4, §5, §6, §7, §8
# [3] = tested on: T24 (Human Bladder Cancer); experiment: MTT cytotoxicity assay; details: SEQ ID NO. 2 80 μg/ml, doxorubicin 75 μM; 48h
# Procedure: as §1, §2, §3, §4, §5, §6, §7, §8
# [4] = tested on: MCF-7 (Human breast adenocarcinoma); experiment: MTT cytotoxicity assay; details: SEQ ID NO. 2 80 μg/ml, doxorubicin 75 μM; 48h
# Procedure: as §1, §2, §3, §4, §5, §6, §7, §8
# [5] = tested on: MDA-MB-453 (Human breast metastatic carcinoma); experiment: MTT cytotoxicity assay; details: SEQ ID NO. 2 80 μg/ml, doxorubicin 75 μM; 48h
# Procedure: as §1, §2, §3, §4, §5, §6, §7, §8
# [6] = tested on: MDA-MB-231 (Human breast adenocarcinoma); experiment: MTT cytotoxicity assay; details: SEQ ID NO. 2 80 μg/ml, doxorubicin 75 μM; 48h
# Procedure: as §1, §2, §3, §4, §5, §6, §7, §8
# [7] = tested on: T-47D (Human mammary gland ductal carcinoma); experiment: MTT cytotoxicity assay; details: SEQ ID NO. 2 80 μg/ml, doxorubicin 75 μM; 48h
# Procedure: as §1, §2, §3, §4, §5, §6, §7, §8
# [8] = tested on: PANC-1 (Human pancreatic epitheloid carcinoma); experiment: MTT cytotoxicity assay; details: SEQ ID NO. 2 80 μg/ml, doxorubicin 75 μM; 48h
# Procedure: as §1, §2, §3, §4, §5, §6, §7, §8
# MDA-MB-231 = experiment: JC-1 assay, mitochondrial membrane depolarization; format: cell-based, Human; details: 16h
# Procedure: To evaluate the in vitro apoptotic effect of recombinant lectin having the amino acid sequence of SEQ ID NO.2 in MDA-MB-231 (breast cancer) and PANG-1 (pancreatic cancer) cell line by JC-1 assay, an increase in mitochondrial membrane depolarization was used as a marker of apoptosis. […] 2 using JC-1 dye based method. […] The cell lines were grown in Dulbecco's Modified Eagle Medium (DMEM)+10% heat inactivated FBS at 37° C. (95% humidity and 5% CO2). […] Recombinant lectin having the amino acid sequence of SEQ ID NO. 2 was diluted in serum free medium. Doxorubicin was used as positive control and stock solution was prepared in dimethyl sulfoxide (DMSO). […] The cells were then incubated overnight under growth conditions to allow the cell recovery and exponential growth. Cells were treated with the recombinant lectin of SEQ ID NO. […] Following respective treatments the cells in the above plate were incubated for 16h in CO2 incubator at 37° C., 5% CO2 and 95% humidity.
# After 16h of incubation, the supernatants were discarded and 100 μL of JC1-dye solution (prepared by diluting 1 mM DMSO stock in to 10 μM in 1×PBS) was added to each well. The cells were then incubated with the dye in CO2 incubator at 37° C. for 15 min. After 15 min of incubation, the supernatant was removed and the cells were washed twice with 1×PBS and then 100 μL of 1×PBS was added to each well. Red fluorescence (excitation 550 nm, emission 600 nm) and green fluorescence (excitation 485 nm, emission 535 nm) were measured using Biotek Synergy FIT plate reader. The mitochondrial membrane potential […] was calculated as the ratio of intensity of red fluorescence to intensity of green fluorescence described as follows:
# ΔΨM=Intensity of red fluorescence/Intensity of green fluorescence
# The percentage decrease of Red fluorescence/Green fluorescence corresponding to each treatment was calculated using the following formula:
# Where X=Δψm corresponding to treated cells R=ΔΨM corresponding to control wells.
# Astrocytoma (U87MG) = experiment: cytotoxicity in Brain Tumor Cell lines by MTT assay; details: 0.1 Mm-100 μM, 72 h
# TNF-α = experiment: biomarker levels in IOMM-Lee by multiplex analysis; format: cell-based, Human
# Text: (§9) Effect of SEQ ID No 2 on the expression of following 7 biomarkers were estimated in Human Meningioma cell line (IOMM-Lee) using multiplex analysis: TNF-alpha, VEGF, VEGFR2, HGF, HGFR/c-MET, PDGF-BB, and Contactin-1. Levels of another marker, Notch-1 were also estimated by ELISA in the same cell line. These 8 biomarkers play very crucial role in the pathogenesis and progression of Brain Tumor. […] Supernatants were collected and the levels of these 8 markers were investigated.
# PDGF-BB = experiment: biomarker levels in IOMM-Lee by multiplex analysis; format: cell-based, Human
# Text: as §9
# VEGF = experiment: biomarker levels in IOMM-Lee by multiplex analysis; format: cell-based, Human
# Text: as §9
# HGF = experiment: biomarker levels in IOMM-Lee by multiplex analysis; format: cell-based, Human
# Text: as §9
# VEGFR2 = experiment: biomarker levels in IOMM-Lee by multiplex analysis; format: cell-based, Human
# Text: as §9
# HGFR/c-MET = experiment: biomarker levels in IOMM-Lee by multiplex analysis; format: cell-based, Human
# Text: as §9
# Contactin-1 = experiment: biomarker levels in IOMM-Lee by multiplex analysis; format: cell-based, Human
# Text: as §9
smiles,measurement,setting,value
"COc1cccc2c1C(=O)c1c(O)c3c(c(O)c1C2=O)C[C@@](O)(C(=O)CO)C[C@@H]3O[C@H]1C[C@H](N)[C@H](O)[C@H](C)O1 [Doxorubicin, reference compound]",Cytotoxicity at highest concentration tested,[1],32.0%
same,Cytotoxicity at highest concentration tested,[2],63.9%
same,Cytotoxicity at highest concentration tested,[3],54.4%
same,Cytotoxicity at highest concentration tested,[4],64.9%
same,Cytotoxicity at highest concentration tested,[5],71.4%
same,Cytotoxicity at highest concentration tested,[6],50.2%
same,Cytotoxicity at highest concentration tested,[7],51.1%
same,Cytotoxicity at highest concentration tested,[8],65.1%
same,Average Green fluorescence,MDA-MB-231; 0.1 μM,473.0
same,Average Red fluorescence,MDA-MB-231; 0.1 μM,465.3
same,Percentage decrease in MMP (%),MDA-MB-231; 0.1 μM,58.8%
same,Average Green fluorescence,MDA-MB-231; 1 μM,345.5
same,Average Red fluorescence,MDA-MB-231; 1 μM,343.3
same,Percentage decrease in MMP (%),MDA-MB-231; 1 μM,58.3%
same,Average Green fluorescence,MDA-MB-231; 10 μM,534.0
same,Average Red fluorescence,MDA-MB-231; 10 μM,580.7
same,Percentage decrease in MMP (%),MDA-MB-231; 10 μM,54.4%
same,Average Green fluorescence,MDA-MB-231; 25 μM,336.3
same,Average Red fluorescence,MDA-MB-231; 25 μM,376.7
same,Percentage decrease in MMP (%),MDA-MB-231; 25 μM,53.0%
same,Average Green fluorescence,MDA-MB-231; 50 μM,318.0
same,Average Red fluorescence,MDA-MB-231; 50 μM,663.7
same,Percentage decrease in MMP (%),MDA-MB-231; 50 μM,12.5%
same,% of cytotoxicity,Astrocytoma (U87MG),46.6%-72.4%
same,Percentage inhibition on levels of TNF-α,TNF-α; 1 μM,67.8%
same,Percentage inhibition on levels of TNF-α,TNF-α; 10 μM,42.3%
same,Percentage inhibition on levels of PDGF-BB,PDGF-BB; 1 μM,12%
same,Percentage inhibition on levels of PDGF-BB,PDGF-BB; 10 μM,100%
same,Percentage inhibition on levels of VEGF,VEGF; 1 μM,53%
same,Percentage inhibition on levels of VEGF,VEGF; 10 μM,93.4%
same,Percentage inhibition on levels of HGF,HGF; 1 μM,45.3%
same,Percentage inhibition on levels of HGF,HGF; 10 μM,84%
same,Percentage inhibition on levels of VEGFR2,VEGFR2; 1 μM,38.2%
same,Percentage inhibition on levels of VEGFR2,VEGFR2; 10 μM,50.1%
same,Percentage inhibition on levels of HGFR/c-MET,HGFR/c-MET; 1 μM,45.5%
same,Percentage inhibition on levels of HGFR/c-MET,HGFR/c-MET; 10 μM,55.2%
same,Percentage inhibition on levels of Contactin-1,Contactin-1; 1 μM,50%
same,Percentage inhibition on levels of Contactin-1,Contactin-1; 10 μM,23.3%

# From patent publication US20230348564A1, “ANTI-CANCER PROTEINS” (UNICHEM LABORATORIES LTD, priority 2020, published 2023)
